Experimental data taken from EP3298025B1, “NEW AMINO ACID SEQUENCES WITH MI[…] DERIVED FROM NAJA ATRA CARDIOTOXIN 1 (CTX-1)” (Università degli Studi di Parma, priority 2015, dated 2016).
No end group written: not given here.

Assays:
[1] = at 40 µg / ml; cited from earlier work
[2] = tested on: epithelial MDBK cells (Madin Darby Bovine Kidney); experiment: cytotoxicity against eukaryotic cells, Trypan Blue; format: cell-based; conditions: overnight incubation
Protocol: Peptides cytotoxicity against epithelial MDBK cells (Madin Darby Bovine Kidney) was determined using cell cultures of about 5x10^5 cells/ml with and without peptides, with overnight incubation at 37°C with CO2. The negative control was in medium without peptide; positive control was in medium with 0.2% of Triton x100, to completely lyse cells. Cells vitality was assessed adding every well with 20 µl of Trypan Blue, incubating other 5 minutes at 37°C. MCC10 was the minimal peptide concentration with 10% of cytotoxicity.

Mutton RBCs = experiment: haemolysis test; format: cell-based; conditions: maximum concentration 100 µg/ml; 1 hour at room temperature
Protocol: Mutton RBCs, sampled immediately before the test, were washed with isotonic buffer to obtain clear supernatant. The washed RBCs were incubated with different peptide concentrations for 1 hour at room temperature. After this the solution was centrifuged and the haemolysis in the supernatant quantified with a spectrophotometer at 450 nm. The positive control was RBC lysed with 0,1% of Tryton. The sample determined the maximal optical density. The haemolysis percentage was calculated as sample optical density at 450 nm and positive control optical density ratio. MHC10 was the minimal peptide concentration able to lyse 10% of RBC.

Sequence | hemolysis [1] | Cytotoxicity: cell number percentage reduction in comparison with control ([2]; peptide 12.5 µg/ml) | Cytotoxicity: cell number percentage reduction in comparison with control ([2]; peptide 100 µg/ml) | haemolytic effect (Mutton RBCs)
KFFKFFKFFK [synthetic peptide consisting of cationic lysine residues and hydrophobic phenylalanine residues] | severely hemolytic |  |  | 
KLIPILSKTIPAIKNLFYKI [NCP-2] |  | 3% | 5% | < 10%
KLIWILSKTIPAIKNLFYKI [NCP-3] |  | 3% | 7% | < 10%
